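Following 48 hours of exposure in 96-well plates, responses at five concentrations were used to interpolate endpoints linearly. At the TGI there is no net growth.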
Key:
Experiment in all cases: DTP human tumour cell line panel, 48 h
786-0 renal = system: 786-0 renal
A498 renal = system: A498 renal
A549 NSCLC = system: A549 NSCLC
ACHN renal = system: ACHN renal
CAKI-1 renal = system: CAKI-1 renal
CCRF-CEM leukemia = system: CCRF-CEM leukemia
DLD-1 colon = system: DLD-1 colon
EKVX NSCLC = system: EKVX NSCLC
HCC-2998 colon = system: HCC-2998 colon
HCT-116 colon = system: HCT-116 colon
HCT-15 colon = system: HCT-15 colon
HL-60(TB) leukemia = system: HL-60(TB) leukemia
HOP-18 NSCLC = system: HOP-18 NSCLC
HOP-62 NSCLC = system: HOP-62 NSCLC
HOP-92 NSCLC = system: HOP-92 NSCLC
HT29 colon = system: HT29 colon
IGROV1 ovarian = system: IGROV1 ovarian
K-562 leukemia = system: K-562 leukemia
KM12 colon = system: KM12 colon
KM20L2 colon = system: KM20L2 colon
LOX IMVI melanoma = system: LOX IMVI melanoma
LXFL 529 NSCLC = system: LXFL 529 NSCLC
M14 melanoma = system: M14 melanoma
M19-MEL melanoma = system: M19-MEL melanoma
MALME-3M melanoma = system: MALME-3M melanoma
MOLT-4 leukemia = system: MOLT-4 leukemia
NCI-H226 lung = system: NCI-H226 lung
NCI-H23 lung = system: NCI-H23 lung
NCI-H460 lung = system: NCI-H460 lung
OVCAR-4 ovarian = system: OVCAR-4 ovarian
OVCAR-8 ovarian = system: OVCAR-8 ovarian
RXF-631 renal = system: RXF-631 renal
SF-268 CNS = system: SF-268 CNS
SF-295 CNS = system: SF-295 CNS
SF-539 CNS = system: SF-539 CNS
SK-MEL-2 melanoma = system: SK-MEL-2 melanoma
SK-MEL-28 melanoma = system: SK-MEL-28 melanoma
SK-MEL-5 melanoma = system: SK-MEL-5 melanoma
SK-OV-3 ovarian = system: SK-OV-3 ovarian
SN12C renal = system: SN12C renal
SNB-19 CNS = system: SNB-19 CNS
SNB-75 CNS = system: SNB-75 CNS
SNB-78 CNS = system: SNB-78 CNS
SR leukemia = system: SR leukemia
SW-620 colon = system: SW-620 colon
TK-10 renal = system: TK-10 renal
U251 CNS = system: U251 CNS
UACC-257 melanoma = system: UACC-257 melanoma
UACC-62 melanoma = system: UACC-62 melanoma
UO-31 renal = system: UO-31 renal
COLO 205 colon = system: COLO 205 colon
DMS 114 small cell lung = system: DMS 114 small cell lung
DMS 273 small cell lung = system: DMS 273 small cell lung
NCI-H522 lung = system: NCI-H522 lung
RPMI-8226 leukemia = system: RPMI-8226 leukemia
RXF 393 renal = system: RXF 393 renal
XF 498 CNS = system: XF 498 CNS

Measured: TGI

C/C(=N\NC(=O)CC#N)c1c(O)cc(C)oc1=O
not listed: COLO 205 colon | DMS 114 small cell lung | DMS 273 small cell lung | NCI-H522 lung | RPMI-8226 leukemia | RXF 393 renal | XF 498 CNS
> 100 µM: all other assays above

C=C(C)C1C/C=C(/C)CCCC2(CCC3=C(CC(C(=C)C)C/C=C(/C)CCC3)O2)C(=O)C1 (centres undefined)
not listed: CAKI-1 renal | RXF-631 renal | SK-MEL-5 melanoma
> 100 µM: all other assays above

Source: PubChem BioAssay (NCI)
